Values after ≈ are worked out from the molar mass of the structure shown.
Legend:
[1] = Critical micelle concentration and surface tension of water, Du Nouy method (Kibron Delta-8 microtensiometer); format: physicochemical; conditions: for CMC: degassed deionized water, 24-25° C.; for Minimum Surface Tension: surface tension of water at CMC (water 72 mN/m)
Procedure: As summarized in Table 1, the critical micelle concentrations (CMCs) of NB-RLP1006, NB-RLP978, NB-RLP860, and NB-RLP-1048B were determined by the Du Nouy method utilizing a Kibron Delta-8 multichannel microtensiometer (Kibron Inc., Helsinki, Finland). All samples were prepared in degassed deionized water (Millipore, Etobicoke, ON, CA) at concentrations ranging from 0 to 2.0 mM. All measurements were recorded between 24 and 25° C. and performed in duplicate. The critical micelle concentration of both NB-RLP1006 and NB-RLP978 was 0.20 mM (0.02 wt %). […] The surface activity of NB-RLP1006 was compared to rhamnolipids A and B, which were purified from a commercially available rhamnolipid mixture (R90; AGAE Technologies, Corvallis, OR, USA) by reversed-phase HPLC.

[2] = system: adult epidermal keratinocytes (HEKa); experiment: Cytotoxicity testing, alamarBlue, HEKa cells; format: cell-based, human; conditions: 24 h treatment; for HEKa (MIC90): 90% of growth inhibition; for IC50: Homo sapiens, HEKa
Procedure: (§1) To evaluate the safety profile of the glycolipopeptides, cytotoxicity testing was conducted against two normal human cell lines, BJ fibroblast cells ATCC CRL-2522 and adult epidermal keratinocytes (HEKa; Life Technologies, Carlsbad, CA, USA). […] Life Technologies, Carlsbad, CA, USA) and 50 μg/mL gentamicin (Sigma-Aldrich, St. Louis, MO, USA). Cells were cultured in […]^2 cell culture flasks and incubated at 37° C. in a humidified atmosphere of 5% CO2. For BJ fibroblasts culture media was refreshed every two to three days and cells were not allowed to exceed 80% confluence. […] At 80% confluence, the cells were counted, diluted to 10,000 cells/well in growth medium lacking antibiotics and 90 μL of cell suspension was transferred into the wells of 96-well treated cell culture plates. The plates were incubated as before to allow cells to adhere to the plates for 24 h before treatment. DMSO was used as the vehicle at a final concentration of 1%. […] The fibroblasts and HEKa cells were incubated as previously described for 24 h. All samples were tested in triplicate. […] AlamarBlue (Life Technologies, Carlsbad, CA, USA) was added to each well 24 h after treatment (10% v/v). Fluorescence (560/12 excitation, 590 nm emission) was monitored using a Varioskan Flash Multimode plate reader both at time zero and 4 h after the addition of alamarBlue. After subtraction of fluorescence at time zero from 4 h readings the percentage of cell viability relative to vehicle control wells was calculated.

[3] = system: BJ fibroblast cells ATCC CRL-2522; experiment: Cytotoxicity testing, alamarBlue, BJ fibroblasts; format: cell-based, human; conditions: 24 h treatment; for BJ (MIC90): 90% of growth inhibition; for IC50: Homo sapiens, Fibroblast
Procedure: as §1

[4] = Aqueous solubility (remark); format: physicochemical; conditions: in words
[5] = Characteristic curvature (Cc) by HLD-NAC model, electrolyte scan with SDHS/toluene; format: physicochemical; conditions: NB-RLP1006/SDHS mixtures, toluene oil phase, NaCl 0 to 6.0% (w/v)
Procedure: The characteristic curvature (Cc) of NB-RLP1006 was determined using the hydrophilic-lipophilic difference-net average curvature (HLD-NAC) model to calculate the shift in chemical potential when NB-RLP1006 is transferred from the oil to the aqueous phase as a function of salinity by the following general equation: HLD=F(S)−k×EACN+F(A)−∝×ΔT+Cc where F(S) is a function of salinity, k is a coefficient equal to 0.17, EACN (effective alkane carbon number) is the number of carbons in the alkane oil phase, α is a coefficient dependent on the type of surfactant (ionic, ethoxylates, etc), and ΔT is the effect of temperature. Four mixtures of NB-RLP1006 and sodium dihexyl sulfosuccinate (SDHS) were prepared with a total surfactant concentration of 1.8 mg/mL using the following NB-RLP1006/SDHS ratios: 0, 12, 24, and 40 wt % NB-RLP1006. An electrolyte scan was performed for each mixture by varying the NaCl concentration from 0 to 6.0% (w/v). Each mixture was added to an equal volume of toluene, which constituted the oil phase, and shaken vigorously. […] A plot of the NB-RLP1006/SDHS molar ratios versus S* was generated and Cc was calculated from the line of best fit. The Cc value for NB-RLP1006 was determined to be +5.2, a value that reflects the hydrophobic nature of this biosurfactant.

[6] = Emulsification activity assay (emulsification index E24, kerosene); format: physicochemical
Procedure: V. paradoxus RKNM-096 was identified as a biosurfactant producer in a screen aimed at identifying bacterial producers of biosurfactants with emulsifying properties. The assay utilized to identify bacterial producers of biosurfactants was the emulsification activity assay. In this assay cultures were grown in 10 mL of liquid medium in 25 mm×150 mm glass tubes at 30° C. with shaking at 200 rpm for 5 days. After 5 days, the cells were removed by centrifugation and 3.5 mL of cell free culture broth was mixed with 3.5 mL of kerosene in a 13 mm×100 mm test tube with a screw cap tube. The tubes were vortexed for two minutes and then allowed to stand overnight at room temperature after which the height of the emulsion (hemuls) and the total height (htotal) of the liquid in the tube were measured. The emulsification index (E24) was calculated using the equation E24=hemuls/htotal×100%.
(§2) The emulsifying properties of NB-RLP1006 were determined using the emulsification index as described above. […] The emulsification of NB-RLP1006 is pH-dependent with E24 values of 8, 38, and 31% at pH 3, 6, and 8, respectively. The type of emulsion formed by NB-RLP1006 (e.g. oil-in-water or water-in-oil) was determined using the drop dilution test. An emulsion was formed by vigorously mixing a 1 mg/mL solution of RLP1006 in deionized water with an equal volume of kerosene for 1 min. A portion (20 μL) of the emulsion was transferred to 0.5 mL of deionized water and 0.5 mL of kerosene and dilution of the emulsion in each liquid was monitored.

[7] = Drop dilution test for type of emulsion; format: physicochemical; conditions: 1 mg/mL in deionized water with equal volume of kerosene
Procedure: as §2

| Molecule | CMC [1] [wt %] | CMC ([1]; duplicate) [mM] | Minimum Surface Tension [1] [mN/m] | HEKa (MIC90) [2] [mg/L] | IC50 ([2]; error is standard deviation) [mg/L] | BJ (MIC90) [3] [mg/L] | IC50 ([3]; error is standard deviation) [mg/L] | aqueous solubility [4] | characteristic curvature (Cc) [5] | emulsification index (E24) ([6]; 1 mg/mL in deionized water) [%] | emulsification index (E24) ([6]; pH 3) [%] | emulsification index (E24) ([6]; pH 6) [%] | emulsification index (E24) ([6]; pH 8) [%] | type of emulsion formed [7] | HEKa (IC50) ([2]; error is standard deviation) [mg/L] | BJ (IC50) ([3]; error is standard deviation) [mg/L] |
| --- | --- | --- | --- | --- | --- | --- | --- | --- | --- | --- | --- | --- | --- | --- | --- | --- |
| CCCCCCCC(CC(=O)NC(CO)C(=O)NC(CO)CC(C)C)OC(=O)CC(CCCCCCC)OC(=O)CC(CCCCCCC)OC1OC(C)C(O)C(O)C1O (stereo not drawn) [NB-RLP860] | 0.07 | 0.85 | 36.2 | 128 | 15.5 ± 1.6 (≈ 18 µM) | 32 | 16.3 ± 0.3 (≈ 18.9 µM) | poor aqueous solubility | – | – | – | – | – | – | – | – |
| CCCC(CC(=O)NC(CO)C(=O)NC(CO)CC(C)C)OC(=O)CC(CCC)OC(=O)CC(CCC)OC1OC(C)C(O)C(OC2OC(C)C(O)C(O)C2O)C1O (stereo not drawn) [NB-RLP978] | 0.02 | 0.20 | 35.5 | – | – | – | – | – | – | – | – | – | – | – | – | – |
| CCCCCCCC(CC(=O)NC(CO)C(=O)NC(CO)CC(C)C)OC(=O)CC(CCCCCCC)OC(=O)CC(CCCCCCC)OC1OC(C)C(O)C(OC2OC(C)C(O)C(O)C2O)C1O (stereo not drawn) [NB-RLP1006] | 0.02 | 0.20 | 35.5 | 64 to 128 | 15.5 ± 1.7 (≈ 15.4 µM) | 32 | 19.5 ± 2.4 (≈ 19.4 µM) | – | +5.2 | 53 | 8 | 38 | 31 | oil-in-water (o/w) and o/w | – | – |
| CCCCCCCC(CC(=O)NC(CO)C(=O)NC(CO)CC(C)C)OC(=O)CC(CCCCCCC)OC(=O)CC(CCCCCCC)OC1OC(C)C(O)C(OC2OC(C)C(O)C(OC(C)=O)C2O)C1O (stereo not drawn) [NB-RLP1048B] | 0.09 | 0.85 | 36.9 | 64 to 128 | 19.3 ± 4 (≈ 18.4 µM) | 32 | 18.7 ± 1.6 (≈ 17.8 µM) | poor aqueous solubility | – | – | – | – | – | – | – | – |
| Zinc pyrithione [reference compound] | – | – | – | 1 | – | 4 | – | – | – | – | – | – | – | – | 0.20 ± 0.001 | 2.2 ± 0.3 |

From patent US12404294B2, “Glycolipopeptide biosurfactants” (Croda International Plc, priority 2016, dated 2025)
